The values below come from paper PMC10764104, “Discovery of Molecular Glue Degraders via Isogenic Morphological Profiling” (ACS Chemical Biology, 2023).

Data set [1] concerns the target T1, recombinant DDB1-CRBN (Homo sapiens, UniProt Q96SW2).
T1 construct: His; made in house; host or cells: High Five insect cells (baculovirus made and propagated in SF9 cells)
The experiment in a line: Fluorescence polarization-based competition assay for CRBN binding. The method, then: Prior to screening the compound library in the isogenic CPA, we assessed their CRBN binding affinities using a fluorescence-polarization-based competition assay with recombinant DDB1-CRBN and the fluorescent tracer 16 (Figure S2). […] We also assessed the cytotoxicity of the CRBN binders in RKO wild-type (WT) cells to determine the appropriate treatment concentration. […]
(§1) Fluorescence Polarization‐based competition assay
(§2) Fluorescence Polarization assays were performed in 384‐well, Low Volume, Black, Round Bottom, Polystyrene Nonbinding surface Microplates (Corning, #4514). The test compounds were incubated with 200 nM CRBN‐DDB1 and 20 nM Pomalidomide‐fluorescein tracer 16 in 50 mM Tris‐HCl pH 7.5, 200 mM NaCl, 1 mM DTT, 0.02% Triton X‐ 100, and 0.1 µg/µL Bovine Serum Albumin (Sigma Aldrich, #A7030) in a total volume of 25 µL. Fluorescence polarization values were determined with a PerkinElmer Envision reader with FITC FP dual mirror and FITC FP 480 excitation filter and FITC FP 535 emission filters. Fluorescence polarization values of a 10x serial dilution (10 nM to 100 µM) of the test compounds were determined in triplicates. EC50 values were calculated with GraphPad Prism software (version 10.0.2) with a non‐linear fit function (4PL sigmoidal curve fit) adjusting the bottom constrain to the FP value of free tracer. […]

Data set [2] relates to HEK293T cells. The experiment in a line: CellTiter-Glo cytotoxicity of selected compounds (manual, 72 h). To be noted: up to 10 μM. It is filed as cell-based, human. The method, then:
(§3) Assessment of gene expression and essentiality in RKO WT
as §1
(§4) EC50 values were calculated with GraphPad Prism […]
(§5) the FP value of free tracer. […]
(§6) instructions. […] For the screening of the whole SuFEx
(§7) Data visualization was done with seaborn
(§8) (https://seaborn.pydata.org, version 0.12.2). […]
(§9) compounds. (F) Analysis of the cytotoxicity of compounds with treatment‐centric features related to FL2‐ […]
(§10) Synthesis and in Vitro Evaluation of Diverse Heterocyclic Diphenolic Compounds as Inhibitors of DYRK1A.
(§11) (7) Zhang, J.‐H.; Chung, T. D. Y.; Oldenburg, K. R. A Simple Statistical Parameter for Use in Evaluation and Validation of High Throughput Screening Assays. SLAS Discov.

Data set [3] relates to RKO WT cells. The description is as above. The note with it: up to 10 μM. It is filed as cell-based, human. As to the method:
as §3, §1, §4, §5, §6, §7, §8, §9, §10, §11

Data set [4] deals with T2, GSPT2 (Homo sapiens, UniProt Q8IYD1+Q96SW2).
T2 construct: endogenous in cells; host or cells: RKO WT or RKO CRBN KO
Description: Western blot analysis of GSPT1 and GSPT2 degradation in RKO WT or CRBN KO cells. It is filed as cell-based. The note with it: RKO WT or RKO CRBN KO, 10 µM, 16 h. As to the method:
(A) Structure of FL2-14 comprising fluorosulfate scaffold FL2 (black) and tail group modification 14 (blue). (B) DMSO-normalized quantitative proteomics after 16 h of treatment with FL2-14 (10 μM) in RKO WT (n = 2). […] (C) Structural alignment of AlphaFold models of GSPT1 (AF-P15170-F1-model_v4 in gray) and GSPT2 (AF-Q8IYD1-F1-model_v4 in blue). (D) Validation of GSPT2 degradation by FL2-14. […] (E) Dose–response of FL2-14 in RKO and HEK293T cells. Cells were treated with the FL2-14 (0 to 10 μM) for 16 h. (F) Degradation of GSPT2^WT or GSPT2^G566N. […]
Analysis of targeted protein degradation of GSPT1 and GSPT2 via western blot For degradation assays 800 000 RKO WT or CRBN KO cells were seeded 1 day prior to the treatment in 6 well plates.
Then, cells were treated with 10 µM of the compounds for 16 hours if not otherwise stated. Cells were harvested, lysed for 30 min at 37°C in lysis buffer (1x PBS, 1% SDS, 2 mM MgCl2, 1x Halt Protease inhibitor cocktail, 50 Units Benzonase) and cleared for 30 min at 18 000 x g at 4°C. Protein concentration was determined with the Pierce 660 nm Protein Assay using the Ionic Detergent Compatibility Reagent (Thermo Scientific). 10 µg total proteome were subjected to western blot analysis by adding 4x Bolt™ LDS Sample Buffer (Thermo Scientific). Samples were boiled at 95°C for 5 min and subjected to gel electrophoresis with Bolt™ 4‐12% Bis‐Tris Plus Gels (Thermo Scientific) with Bolt™ MES SDS Running Buffer (Thermo Scientific). Membranes were blocked with 5% fat‐free milk in TBS‐T (20 mM Tris, 150 mM NaCl, 0.1% Tween, pH 7.6) for 1 h at room temperature and washed subsequently 3x 5 min with TBS‐
T. Afterwards, they were incubated for 1 h at room temperature with either GSPT1 antibody (Abcam ab49878, rabbit, […]
rabbit, 1:10 000), CRBN (Cell Signaling Technologies, CST71810S, rabbit, 1:1000), or GAPDH (SantaCruz sc‐47724, mouse, 1:1 000). Followed by washing 3x 5 min with TBS‐T and incubation for 1 h at room temperature with either Goat ANTI‐RABBIT IgG StarBright™ Blue 700 (Bio‐Rad, #12004162, 1:10 000) or Goat anti‐Mouse IgG (H+L) Cross‐ Adsorbed Secondary Antibody, DyLight™ 800 (Bio‐Rad, STAR117D800GA, 1:10 000) fluorophore‐conjugated

The subject of data set [5] is RKO WT, RKO CRBN KO and RKO CRBN OE. Description: Isogenic cell painting assay, treatment-centric feature selection and CRBN-dependency prediction. It is filed as cell-based, human.
In data set [6] the test system is RKO WT cells. To be noted: method not stated for this control.
Description: Prior to screening the compound library in the isogenic CPA, we assessed their CRBN binding affinities using a fluorescence-polarization-based competition assay with recombinant DDB1-CRBN and the fluorescent tracer 16 (Figure S2). […] We also assessed the cytotoxicity of the CRBN binders in RKO wild-type (WT) cells to determine the appropriate treatment concentration.
as §3
Public datasets on the transcriptome and essentiality of a protein‐encoding gene for RKO (cell line ID: ACH‐000943) were retrieved from DepMap Public 23Q2 (https://depmap.org/portal/, accessed on 14 August 2023). […]
as §1
as §2, with “The test compounds were incubated with 200 nM CRBN‐DDB1 and 20 nM Pomalidomide‐fluorescein tracer 16 in 50 mM Tris‐HCl pH 7.5, 200 mM NaCl, 1 mM DTT, 0.02% Triton X‐ 100, and 0.1 µg/µL Bovine Serum Albumin (Sigma Aldrich, #A7030) in a total volume of 25 µL.” left out

Setting [7] is: 200 nM CRBN-DDB1, 20 nM pomalidomide-fluorescein tracer 16, triplicates, read-out: FP_CRBN_binding: CRBN binding affinity, EC50.

The structures appear in SMILES notation. Read-outs that look alike come from different tables or passages of the source.

Regarding `O=C1CCC(N2C(=O)c3ccc(Nc4cccc(OS(=O)(=O)N5CC(CCO)C5)c4)cc3C2=O)C(=O)N1` (stereo not drawn) [FL1-2], the EC50 in data set [1] (setting [7]) is 419 nM; in data set [2] it was > 10000 nM; in data set [3] it was > 10000 nM. As for `O=C1CCC(N2C(=O)c3ccc(Nc4cccc(OS(=O)(=O)N5CCC(c6ccco6)C5)c4)cc3C2=O)C(=O)N1` (stereo not drawn) [FL1-12], the EC50 in data set [1] (setting [7]) was 2780 nM; in data set [2] it was > 10000 nM; in data set [3], > 10000 nM. In the case of `CN(Cc1ncc(C2CC2)o1)S(=O)(=O)Oc1cccc(Nc2ccc3c(c2)C(=O)N(C2CCC(=O)NC2=O)C3=O)c1` (stereo not drawn) [FL1-14], the EC50 in data set [1] (setting [7]) was found to be 395 nM. The “GSPT1/2 degradation by CRBN binders with tail group modification 14” value in data set [4] is on record as “weak degradation of GSPT2”.

Regarding `CN(C)c1ncc(CN(C)S(=O)(=O)Oc2cccc(Nc3ccc4c(c3)C(=O)N(C3CCC(=O)NC3=O)C4=O)c2)cn1` (stereo not drawn) [FL1-18], the results for the EC50 in data set [1] (setting [7]), in data set [2] and in data set [3] were 363 nM, > 10000 nM and > 10000 nM, respectively. As to `O=C1CCC(c2cccc(OS(=O)(=O)N3CCC(c4ccncc4)CC3)c2)C(=O)N1` (stereo not drawn) [FL6-16], the EC50 in data set [1] (setting [7]) was 645 nM. On the same count and under the same terms, under `CC1c2cc(F)ccc2CCN1S(=O)(=O)Oc1cccc(C2CCC(=O)NC2=O)c1` (stereo not drawn) [FL6-17] stands 803 nM; under `CN(C)c1ncc(CN(C)S(=O)(=O)Oc2cccc(C3CCC(=O)NC3=O)c2)cn1` (stereo not drawn) [FL6-18], 794 nM; under `CC1c2cccn2CCN1S(=O)(=O)Oc1cccc(C2CCC(=O)NC2=O)c1` (stereo not drawn) [FL6-19], 874 nM. Consider `CN(Cc1ccc2c(c1)OCO2)S(=O)(=O)Oc1cccc(C2CCC(=O)NC2=O)c1` (stereo not drawn) [FL6-20], for which, in data set [1] (setting [7]), the EC50 came out at 622 nM. Consider `CN(C1CC1)S(=O)(=O)Oc1cccc(C2CCC(=O)NC2=O)c1` (stereo not drawn) [FL6-21], for which the EC50 in data set [1] (setting [7]) worked out at 1070 nM.

On to `O=C1CCC(c2ccccc2OS(=O)(=O)F)C(=O)N1` (stereo not drawn) [FL7], for which, in data set [1], the EC50 amounted to 72400 nM. Regarding `CN1C(=O)CCC(N2C(=O)c3cccc(N)c3C2=O)C1=O` (stereo not drawn) [Methylated pomalidomide], the “Number_Features: number of treatment-centric features selected” value in data set [5] is given as 0. With `Nc1cccc2c1C(=O)N(C1CCC(=O)NC1=O)C2=O` (stereo not drawn) [Pomalidomide, reference compound], the “cytotoxicity to RKO WT” value in data set [6] is “not cytotoxic”. `COc1cc(N2CCN(CCOCCOCCNC(=O)CNc3cccc4c3C(=O)N(C3CCC(=O)NC3=O)C4=O)CC2)ccc1Nc1ncc(Cl)c(Nc2ccccc2S(=O)(=O)C(C)C)n1` (stereo not drawn) [TL 13-12]: the “change of cell size across isogenic RKO cells” value in data set [5] (1.5 μM, RKO CRBN OE vs RKO CRBN KO) is “enlarges cells drastically in a CRBN-dependent manner”.
